Legend:
[1] = tested on: Jurkat cells; assay: NAD Elevation Assay (NAD Cellular Assay), Jurkat cells; assay type: cell-based; details: @ 1 mM, NAD normalized to total protein, multiple of NAD level in untreated cells
Protocol: Compounds were tested in an NAD Cellular Assay according to the following protocol. Jurkat cells (50,000 per in 100 microliters of RPMI media) were added to wells of a 96 well, conical bottomed plate. The cells were allowed to recover for 3 h in culture. A 16 microliter aliquot of a 100 mM compound stock solution was diluted with 784 microliters of medium and 10% FBS to give 800 microliters of a 2 mM compound treatment solution. The compound treatment solution was added to the cells for a final concentration of 1 mM compound (n=6 wells for each compound.) As a parallel control, nicotinamide mononucleotide (NMN) was added to cells at a final concentration of 2 mM (n=6). The plates were incubated for 24 hours, then spun at 1000 rpm for 10 min. The medium was removed, then the cells were washed with fresh PBS and spun again. The PBS medium was removed, then the cells were washed one more time with PBS and spun. The liquid was removed from each well via pipette, avoiding touching the cell pellet. The cells were lysed with 75 microliters of 0.5% DTAB. […] The NAD concentration in each well was determined using a commercially available assay according to the kit instructions (e.g. Promega NAD/NADH-Glo™ Assay.) The Pierce BCA protein assay was run according to the kit instructions (e.g. ThermoScientific Catalog number 23225). […]

[2] = tested on: NDF Cells; assay: NAD Elevation Assay (NAD Cellular Assay), NDF cells; assay type: cell-based; details: @ 0.25 mM, multiple of NAD level in untreated cells
Protocol: Compounds were tested in an NAD Cellular Assay according to the following protocol. Jurkat cells (50,000 per in 100 microliters of RPMI media) were added to wells of a 96 well, conical bottomed plate. The cells were allowed to recover for 3 h in culture. A 16 microliter aliquot of a 100 mM compound stock solution was diluted with 784 microliters of medium and 10% FBS to give 800 microliters of a 2 mM compound treatment solution. The compound treatment solution was added to the cells for a final concentration of 1 mM compound (n=6 wells for each compound.) As a parallel control, nicotinamide mononucleotide (NMN) was added to cells at a final concentration of 2 mM (n=6). The plates were incubated for 24 hours, then spun at 1000 rpm for 10 min. The medium was removed, then the cells were washed with fresh PBS and spun again. The PBS medium was removed, then the cells were washed one more time with PBS and spun. The liquid was removed from each well via pipette, avoiding touching the cell pellet. The cells were lysed with 75 microliters of 0.5% DTAB. 25 microliters of the lysate was added to each of two flat bottomed plates. One plate was used for a BCA protein assay (clear), and the other plate was used for the NAD assay (clear bottom, white walled). The NAD concentration in each well was determined using a commercially available assay according to the kit instructions (e.g. Promega NAD/NADH-Glo™ Assay.) The Pierce BCA protein assay was run according to the kit instructions (e.g. ThermoScientific Catalog number 23225). NAD levels were normalized to total protein and reported as a multiple of the NAD level in untreated cells.
Assays with other cell types were run similarly, using the appropriate compound and NMN dilutions. Cell counts were adjusted as necessary to provide a signal within the reading range of the protein and NAD assay kits.

Compound | NAD Elevation Assay [1] | NAD Elevation Assay [2]
Cn1c(=O)c2c(ncn2CCOC(=O)c2ccc[n+]([C@@H]3O[C@H](CO)[C@@H](O)[C@H]3O)c2)n(C)c1=O.O=S(=O)([O-])C(F)(F)F [Compound 2, 1-((2R,3R,4S,5R)-3,4-dihydroxy-5-(hydroxymethyl)tetrahydrofuran-2-yl)-3-((2-(1,3-dimethyl-2,6-dioxo-1,2,3,6-tetrahydro-7H-purin-7-yl)ethoxy)carbonyl)pyridin-1-ium trifluoromethanesulfonate] | 2.9× @ 1 | –
Cn1cnc2c1c(=O)n(CCCOC(=O)c1ccc[n+]([C@@H]3O[C@H](COP(=O)([O-])O)[C@@H](O)[C@H]3O)c1)c(=O)n2C [Compound 5P, ((2R,3S,4R,5R)-5-(3-((3-(3,7-dimethyl-2,6-dioxo-2,3,6,7-tetrahydro-1H-purin-1-yl)propoxy)carbonyl)pyridin-1-ium-1-yl)-3,4-dihydroxytetrahydrofuran-2-yl)methyl hydrogen phosphate] | – | 2.2× @ 0.25
Cn1c(=O)c2c(ncn2CC(=O)OCCCOC(=O)c2ccc[n+]([C@@H]3O[C@H](COP(=O)([O-])O)[C@@H](O)[C@H]3O)c2)n(C)c1=O [Compound 6P, ((2R,3S,4R,5R)-5-(3-((3-(2-(1,3-dimethyl-2,6-dioxo-1,2,3,6-tetrahydro-7H-purin-7-yl)acetoxy)propoxy)carbonyl)pyridin-1-ium-1-yl)-3,4-dihydroxytetrahydrofuran-2-yl)methyl hydrogen phosphate] | – | 2.0× @ 0.25
CCCn1cnc2c1c(=O)n(CCOC(=O)c1ccc[n+]([C@@H]3O[C@H](COP(=O)([O-])O)[C@@H](O)[C@H]3O)c1)c(=O)n2C [Compound 7P, ((2R,3 S,4R,5R)-3,4-dihydroxy-5-(3-((2-(3-methyl-2,6-dioxo-7-propyl-2,3,6,7-tetrahydro-1H-purin-1-yl)ethoxy)carbonyl)pyridin-1-ium-1-yl)tetrahydrofuran-2-yl)methyl hydrogen phosphate] | – | 1.9× @ 0.25
